Paper PMC9945734 (BMC Medicine, 2023)

Assays:
MYBL2 [1] = test: MYBL2 immunohistochemical staining of bone tissues; assay type: in vivo, Balb/c nude mice; conditions: treatment in mice
Experimental: Immunohistochemical staining was conducted following established procedures. Briefly, 4-μm sections of bone tissues were deparaffinized in xylene and rehydrated in gradient ethanol. The endogenous antigen was retrieved by incubating slides in 10 mM sodium citrate buffer (Cat #: C1010, Solarbio, Beijing, China) overnight in an oven at 65°C. After antigen retrieving, tissue sections were incubated with 3% hydrogen peroxide at room temperature for 10 min to block the endogenous […] activity. They were then incubated in a blocking solution (0.1% albumin bovine V mixed with 10% goat serum) for 40 min, and a solution containing a primary antibody (MMP9, 1:1000, Cat #: ab76003, Abcam, Cambridge, UK; MYBL2, 1:100, Cat #: ab76009, Abcam) for 1.5 h. After rinsing with PBS for 3 times, slides were incubated with the secondary antibody solution for 15 min and then with the DAB solution using the MaxVision II HRP kit (Cat #: KIT-5920, MXB Biotechnologies, Fuzhou, China). Nuclei were counterstained with hematoxylin for 2 min. Slides were then dehydrated with gradient ethanol (75–100%) and xylene and mounted with coverslips using the quick-hardening mounting medium. All slides were scanned using an Aperio VERSA 8 Scanner System (Leica, Wetzlar, Germany) and analyzed using the Image J software (Image J 1.48v, NIH, Bethesda, MD, USA).

RAW264.7 cells [2] = test: RANKL-induced osteoclast differentiation, TRAP staining; assay type: cell-based; conditions: RANKL 50 ng/mL
Experimental: Three different culture systems were used for the in vitro osteoclast differentiation assay. In the first one, RAW264.7 cells were seeded onto 96-well plates at 1 × 10^3 cells/well and cultured overnight. Cells were then stimulated with recombinant mouse RANKL (Cat #: CR06, Novoprotein, Shanghai, China) at 50 ng/mL in the presence or absence of various concentrations of NTZ (0, 6.25, 12.5, 25 μM). […] Cells were then fixed in 4% paraformaldehyde for 10 min, rinsed with prewarmed deionized water, and stained with tartrate-resistant acid phosphatase (TRAP) using a kit from Sigma-Aldrich (Cat #: A387) to visualize osteoclasts (≥ 3 nuclei/cell). The effect of NTZ on osteoclast differentiation was determined by counting the number of multinucleated cells using the Image J software (Image J 1.48v).

RAW264.7 cells [3] = test: Osteoclast differentiation with conditioned medium from NTZ-treated PC-3-KQ cells; assay type: cell-based; conditions: CM from PC-3-KQ cells treated at 2.5 or 5 μM for 36 h; RANKL 10 ng/mL; 7 days
Experimental: In the second in vitro assay, we used conditioned medium (CM) from NTZ-treated Ac-KLF5-expressing cells. PC-3-KQ cells were seeded in 6-well plates at 1 × 10^5 cells per well and cultured overnight. […] Subsequently, the conditioned media (CM) was collected from each group, centrifugated, filtered, aliquoted, and stored at -80°C for further use or used immediately in the co-cultured experiments. […] RAW264.7 cells in 96-well plates with 24-h culture were incubated with the CM-containing medium for 7 days, with the medium replaced every 2 days. The TRAP staining assay was performed to determine the number of differentiated osteoclasts according to the manufacturer's instructions.

MYBL2 [4] = test: MYBL2 expression by qRT-PCR and western blotting; assay type: cell-based, human; conditions: PC-3 and DU 145 cells expressing KLF5^K369Q; dose- or time-dependent
Experimental: Total RNA was extracted from cells using the Eastep Super total RNA extraction kit (Cat #: LS1040, Promega, Shanghai, China) and quantified using the NanoDrop One (Thermo Fisher Scientific, Madison, USA). Single-strand cDNA was synthesized from 1 μg of total RNA using the HiScript III All-in-one RT SuperMix kit (Cat #: R333-01, Vazyme, Nanjing, China). For qRT-PCR, the cDNA template was mixed with the SYBR Green reagent in enzyme-free water, and the Qtower3 touch system (Analytik Jena, Jena, Germany) was used for PCR with the following program: initial denaturation at 95°C for 5 min, 40 cycles of 95°C for 30 s, 60°C for 30 s, and 72 °C for 30 s, and a final melting for 15 s. GAPDH was used as an internal control. […].
Cells in 6-well plates were washed with cold PBS and collected in a lysis buffer containing phosphatase and protease inhibitors (Cat #: P1045, Beyotime) to extract proteins. After centrifugation for 10 min at 4°C in a refrigerated centrifuge, the supernatant was collected and mixed with the 4× loading buffer, boiled in a metal heat bath at 100°C for 10 min, and then subjected to 10% SDS-PAGE. Proteins were transferred onto an activated PVDF membrane (0.45 μm pore-size, Cat #: IPVH00010, Millipore, Carrigtwohill, Ireland). […]

[5] = tested on: RAW264.7 cells co-cultured with PC-3-KQ cells; test: Osteoclast differentiation in co-culture of RAW264.7 and PC-3-KQ cells; assay type: cell-based; conditions: 1.25, 2.5, 5 μM, 7 days
Experimental: The third in vitro assay involved direct co-culture between RAW264.7 cells and cancer cells. RAW264.7 cells were seeded in 96-well plates at 700 cells per well and allowed to adhere for 12 h. PC-3-KQ cells were added to each well at 300 cells/well, and the culture continued for 12 h. NTZ was added to treat cells for 48 h at various final concentrations (0, 1.25, 2.5, 5 μM). The RAW264.7 medium was mixed with the PC-3 medium at 7:3, and the mixture was used to replace the culture medium every 2 days. After 7 days, the osteoclast differentiation was determined as described above.

Structure (SMILES): CC(=O)Oc1ccccc1C(=O)Nc1ncc([N+](=O)[O-])s1 [Nitazoxanide]
- MYBL2 protein expression in bone tissues (IHC) (MYBL2 [1]): significantly decreased MYBL2 protein expression
- number of TRAP^+ multinucleated cells (RAW264.7 cells [2]; 6.25 and 12.5 μM): significantly decreased
- number of TRAP^+ multinucleated cells (RAW264.7 cells [2]; NTZ 0, 6.25, 12.5, 25 μM): decreased the number of TRAP^+ multinucleated cells in a dose-dependent manner
- number of TRAP^+ multinucleated cells (RAW264.7 cells [3]): significantly reduced
- expression of MYBL2 (mRNA and protein) (MYBL2 [4]): reduced the expression of MYBL2
- number of TRAP^+ multinucleated cells [5]: significantly decreased
